IC50 data for 13 molecules are collected here from patent US20240279241A1, “PYRIDO[4,3-D]PYRIMIDINE COMPOUNDS CAPABLE OF INHIBITING KRAS MUTANT PROTEINS” (Redx Pharma PLC, priority 2021, published 2024).

Format in all cases: biochemical
The target of one test is T1, KRAS G12C (Homo sapiens, UniProt P01116, G12C).
T1 construct: 4 nM KRAS; aa1-188 containing the G12V, G12C, G12A or G12S amino acid substitution
Put plainly: HTRF nucleotide exchange assay (NEA), KRAS G12C. The method, then:
(§1) The capacity of compounds to bind KRAS G12D, other KRAS mutants and wildtype RAS isoforms was quantified using a HTRF nucleotide exchange assay. Recombinant human RAS protein (2 nM; aa1-188 KRAS WT, HRAS WT, NRAS WT, or KRAS containing the containing the G12D, G13D or Q61H amino acid substitutions, or 4 nM KRAS; aa1-188 containing the G12V, G12C, G12A or G12S amino acid substitution, an N-terminal 6×His-tag and leader sequence), and 2 nM Europium-labeled anti-6×His antibody were mixed in assay buffer (10 mM HEPES pH7.3, 150 mM NaCl, 5 mM MgCl2, 0.05% BSA, 0.0025% NP-40 and 100 mM KF) with various concentrations of compound in a 384-well plate and a volume of 5 uL. After a 60-minute incubation at room temperature, 5 ul of 200 nM EDA-GTP-DY647P1 (diluted in assay buffer) was added to the plate. Following 30-minute incubation at room temperature, time-resolved fluorescence was measured on a PerkinElmer Envision plate reader. DMSO (0.3%) and unlabeled […] (1 μM) or equivalent tool compound were used to generate the Max and Min assay signals, respectively. Data was analysed using a four-parameter logistic model to calculate IC50 values, with at least two independent replicates were performed for each compound.
A general note: TR-FRET usually uses a lanthanide donor and a delayed reading to cut background.

The next test deals with T2, KRAS G12V (Homo sapiens, UniProt P01116, G12V).
T2 construct: 4 nM KRAS; aa1-188 containing the G12V, G12C, G12A or G12S amino acid substitution
Put plainly: HTRF nucleotide exchange assay (NEA), KRAS G12V. The method, then: as §1

In another test the target is T3, KRAS WT (Homo sapiens, UniProt P01116).
T3 construct: Recombinant human RAS protein (2 nM); aa1-188 KRAS WT
Put plainly: HTRF nucleotide exchange assay (NEA), KRAS WT. The method, boiled down: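 Cmpd + His-KRAS(1-188) [WT, G13D 2 nM; G12C, G12S 4 nM] + Eu anti-6×His 2 nM, pH 7.3 HEPES/NaCl/MgCl2/KF buffer, 60 min RT. Add EDA-GTP-DY647P1 (200 nM soln), 30 min RT. HTRF read. DMSO = max signal; 4PL IC50.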

For the next test, the target named is T4, KRAS G12D (Homo sapiens, UniProt P01116, G12D).
T4 construct: Recombinant human RAS protein (2 nM)
Put plainly: HTRF nucleotide exchange assay (NEA), KRAS G12D. To be noted: recombinant human KRAS G12D aa1-188, 2 nM; lowest class = % inhibition at 10 μM. The method, boiled down:
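Compound binding to KRAS G12D was measured by HTRF nucleotide exchange. Recombinant human KRAS G12D (aa1-188, N-terminal 6×His-tag, 2 nM) and 2 nM Europium anti-6×His antibody were combined with compound in 5 uL assay buffer in 384-well plates for 60 minutes at room temperature, then 5 ul of 200 nM EDA-GTP-DY647P1 was added for 30 minutes before time-resolved fluorescence reading.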

A further test has as its target T5, KRAS G12A (Homo sapiens, UniProt P01116, G12A).
T5 construct: 4 nM KRAS; aa1-188 containing the G12V, G12C, G12A or G12S amino acid substitution
Put plainly: HTRF nucleotide exchange assay (NEA), KRAS G12A. The method, then:
as §1

The target in the next test is T6, KRAS G12S (Homo sapiens, UniProt P01116, G12S).
T6 construct: 4 nM KRAS; aa1-188 containing the G12V, G12C, G12A or G12S amino acid substitution
Put plainly: HTRF nucleotide exchange assay (NEA), KRAS G12S. The method, then: as §1

The target in the next test is T7, KRAS G13D (Homo sapiens, UniProt P01116, G13D).
T7 construct: Recombinant human RAS protein (2 nM); aa1-188 KRAS WT
Put plainly: HTRF nucleotide exchange assay (NEA), KRAS G13D. As to conditions: recombinant human KRAS G13D aa1-188, 2 nM; lowest class = % inhibition at 10 μM. The method, then:
as §1

The structures appear in SMILES notation. Some results are limits rather than exact numbers.

T4 sequence (P01116 1-188 isoform P01116-2 G12D): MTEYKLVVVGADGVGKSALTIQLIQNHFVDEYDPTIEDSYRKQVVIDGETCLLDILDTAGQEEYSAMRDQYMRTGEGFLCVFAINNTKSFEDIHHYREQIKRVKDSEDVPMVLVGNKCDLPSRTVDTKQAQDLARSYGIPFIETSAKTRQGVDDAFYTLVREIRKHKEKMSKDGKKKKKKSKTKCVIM
T3 sequence (P01116 1-188 isoform P01116-2): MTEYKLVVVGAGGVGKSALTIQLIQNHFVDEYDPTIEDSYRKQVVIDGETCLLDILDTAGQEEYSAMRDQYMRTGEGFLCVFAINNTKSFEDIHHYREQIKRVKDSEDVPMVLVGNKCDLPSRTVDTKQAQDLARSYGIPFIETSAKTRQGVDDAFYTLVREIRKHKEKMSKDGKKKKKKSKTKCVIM
T6 sequence (P01116 1-188 isoform P01116-2 G12S): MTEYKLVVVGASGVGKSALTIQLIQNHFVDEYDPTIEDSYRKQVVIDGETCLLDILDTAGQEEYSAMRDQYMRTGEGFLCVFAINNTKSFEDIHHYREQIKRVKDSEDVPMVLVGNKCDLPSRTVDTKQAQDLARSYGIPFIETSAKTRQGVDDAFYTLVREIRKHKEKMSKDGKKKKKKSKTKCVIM
T1 sequence (P01116 1-188 isoform P01116-2 G12C): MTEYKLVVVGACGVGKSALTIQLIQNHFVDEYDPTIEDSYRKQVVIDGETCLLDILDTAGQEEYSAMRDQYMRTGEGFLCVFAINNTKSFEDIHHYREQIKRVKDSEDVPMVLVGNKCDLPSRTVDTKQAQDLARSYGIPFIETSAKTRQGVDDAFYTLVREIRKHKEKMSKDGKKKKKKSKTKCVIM
T5 sequence (P01116 1-188 isoform P01116-2 G12A): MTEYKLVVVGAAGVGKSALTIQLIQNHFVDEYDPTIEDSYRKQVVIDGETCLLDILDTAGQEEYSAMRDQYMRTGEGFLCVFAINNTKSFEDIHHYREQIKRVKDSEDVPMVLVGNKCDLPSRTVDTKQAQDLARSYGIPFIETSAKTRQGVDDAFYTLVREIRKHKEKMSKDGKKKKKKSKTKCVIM
T2 sequence (P01116 1-188 isoform P01116-2 G12V): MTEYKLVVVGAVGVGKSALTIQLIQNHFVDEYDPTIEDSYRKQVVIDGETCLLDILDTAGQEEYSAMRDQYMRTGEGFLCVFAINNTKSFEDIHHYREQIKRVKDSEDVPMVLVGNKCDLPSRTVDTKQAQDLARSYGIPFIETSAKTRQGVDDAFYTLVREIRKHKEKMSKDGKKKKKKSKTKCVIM
T7 sequence (P01116 1-188 isoform P01116-2 G13D): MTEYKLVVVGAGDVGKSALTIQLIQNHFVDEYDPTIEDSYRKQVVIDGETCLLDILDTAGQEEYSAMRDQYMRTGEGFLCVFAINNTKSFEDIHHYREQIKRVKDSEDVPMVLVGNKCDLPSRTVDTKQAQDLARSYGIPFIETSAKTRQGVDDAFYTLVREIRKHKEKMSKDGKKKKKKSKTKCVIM

As for `C#Cc1c(F)ccc2cc(O)cc(-c3ncc4c(N5CCCNC(=O)C5)nc(OC[C@@]56CCCN5C[C@H](F)C6)nc4c3F)c12` (relative stereo) [Example 88, 4-[7-(8-ethynyl-7-fluoro-3-hydroxy-1-naphthyl)-8-fluoro-2-[[trans-2-fluoro-1,2,3,5,6,7-hexahydropyrrolizin-8-yl]methoxy]pyrido [4,3-d]pyrimidin-4-yl]-1,4-diazepan-2-one], the IC50 against KRAS G12C, at KRAS G12V, against KRAS WT, at KRAS G12D, against KRAS G12A and against KRAS G12S was ≤ 10 nM in each case.
Take `CC1CN(c2nc(OCC34CCCN3CCC4)nc3c(F)c(-c4cc(O)cc5ccccc45)ncc23)CCCO1` (stereo not drawn) [Example 16, 4-[8-fluoro-2-(1,2,3,5,6,7-hexahydropyrrolizin-8-ylmethoxy)-4-(2-methyl-1,4-oxazepan-4-yl)pyrido[4,3-d]pyrimidin-7-yl]naphthalen-2-ol]: the IC50 against KRAS G12C lay within 10 to 100 nM; against KRAS G12V, 10 to 100 nM; on KRAS WT, 10 to 100 nM; on KRAS G12D, 10 to 100 nM; at KRAS G12A it was 10 to 100 nM; on KRAS G12S it was 100 to 10000 nM.
Turning to `Oc1cc(-c2ncc3c(N4CCCCCC4)nc(OCC45CCCN4CCC5)nc3c2F)c2ccccc2c1` [Example 17, 4-[4-(azepan-1-yl)-8-fluoro-2-(1,2,3,5,6,7-hexahydropyrrolizin-8-ylmethoxy)pyrido[4,3-d]pyrimidin-7-yl]naphthalen-2-ol], the IC50 on KRAS G12C, against KRAS G12V, against KRAS WT, at KRAS G12D, against KRAS G12A and against KRAS G12S was 10 to 100 nM each time.
As for `O=S1(=O)CCN(c2nc(OCC34CCCN3CCC4)nc3c(F)c(-c4cc(O)cc5ccccc45)ncc23)CC1` [Example 22, 4-[4-(1,1-dioxo-1,4-thiazinan-4-yl)-8-fluoro-2-(1,2,3,5,6,7-hexahydropyrrolizin-8-ylmethoxy)pyrido[4,3-d]pyrimidin-7-yl]naphthalen-2-ol], the IC50 is > 10000 nM on KRAS G13D; 100 to 10000 nM on KRAS WT; 100 to 10000 nM at KRAS G12D; 100 to 10000 nM against KRAS G12A; 100 to 10000 nM against KRAS G12S.
Regarding `COCC(C)CNc1nc(OCC23CCCN2CCC3)nc2c(F)c(-c3cc(O)cc4ccccc34)ncc12` (stereo not drawn) [Example 31, 4-[8-fluoro-2-(1,2,3,5,6,7-hexahydropyrrolizin-8-ylmethoxy)-4-[(3-methoxy-2-methyl-propyl)amino]pyrido [4,3-d]pyrimidin-7-yl]naphthalen-2-ol], the IC50 on KRAS G13D was > 10000 nM; on KRAS WT, 100 to 10000 nM; at KRAS G12D it was 100 to 10000 nM; against KRAS G12A it was 100 to 10000 nM; at KRAS G12S, 100 to 10000 nM.
As for `Oc1cc(-c2ncc3c(N4CCC(O)CC4)nc(OCC45CCCN4CCC5)nc3c2F)c2ccccc2c1` [Example 41, 1-[8-fluoro-2-(1,2,3,5,6,7-hexahydropyrrolizin-8-ylmethoxy)-7-(3-hydroxy-1-naphthyl)pyrido[4,3-d]pyrimidin-4-yl]piperidin-4-ol], the IC50 lay in the range of 10 to 100 nM against KRAS G12C; 10 to 100 nM at KRAS G12V; 10 to 100 nM against KRAS WT; 10 to 100 nM on KRAS G12D; 10 to 100 nM on KRAS G12A; 100 to 10000 nM on KRAS G12S.
For `COCC1(CNc2nc(OCC34CCCN3CCC4)nc3c(F)c(-c4cc(O)cc5ccccc45)ncc23)COC1` [Example 45, 4-[8-fluoro-2-(1,2,3,5,6,7-hexahydropyrrolizin-8-ylmethoxy)-4-[[3-(methoxymethyl)oxetan-3-yl]methylamino]pyrido [4,3-d]pyrimidin-7-yl]naphthalen-2-ol], the IC50 on KRAS G12C, against KRAS G12V, against KRAS WT, at KRAS G12D and at KRAS G12S was 100 to 10000 nM throughout.
As to `Oc1cc(-c2ncc3c(N4CC5CCC(C5)C4)nc(OCC45CCCN4CCC5)nc3c2F)c2ccccc2c1` [Example 47, 4-[4-(3-azabicyclo[3.2.1]octan-3-yl)-8-fluoro-2-(1,2,3,5,6,7-hexahydropyrrolizin-8-ylmethoxy)pyrido [4,3-d]pyrimidin-7-yl]naphthalen-2-ol], the IC50 at KRAS G12C was 10 to 100 nM; against KRAS G12V it was 10 to 100 nM; against KRAS WT, 10 to 100 nM; at KRAS G12D it was 100 to 10000 nM; against KRAS G12A, 10 to 100 nM; against KRAS G12S, 100 to 10000 nM.
In the case of `Oc1cc(-c2ncc3c(N4CCCC5(COC5)C4)nc(OCC45CCCN4CCC5)nc3c2F)c2ccccc2c1` [Example 52, 4-[8-fluoro-2-(1,2,3,5,6,7-hexahydropyrrolizin-8-ylmethoxy)-4-(2-oxa-8-azaspiro[3.5]nonan-8-yl)pyrido[4,3-d]pyrimidin-7-yl]naphthalen-2-ol], the half-maximal inhibitory concentration (IC50) was in the range of 10 to 100 nM on KRAS G12C; 10 to 100 nM against KRAS G12V; 10 to 100 nM at KRAS WT; 10 to 100 nM on KRAS G12D; 10 to 100 nM on KRAS G12A; 100 to 10000 nM at KRAS G12S.
Turning to `O=S1(=O)CCN(c2nc(OCC34CCCN3CCC4)nc3c(F)c(-c4cc(O)cc5ccccc45)ncc23)CCN1` [Example 59, 4-[4-(1,1-dioxo-1,2,5-thiadiazepan-5-yl)-8-fluoro-2-(1,2,3,5,6,7-hexahydropyrrolizin-8-ylmethoxy)pyrido [4,3-d]pyrimidin-7-yl]naphthalen-2-ol], the IC50 against KRAS G12C, against KRAS G12V, on KRAS WT, at KRAS G12D, at KRAS G12A and on KRAS G12S was 100 to 10000 nM in each case.
As to `N#CC1CCN(c2nc(OCC34CCCN3CCC4)nc3c(F)c(-c4cc(O)cc5ccccc45)ncc23)CC1` [Example 65, 1-[8-fluoro-2-(1,2,3,5,6,7-hexahydropyrrolizin-8-ylmethoxy)-7-(3-hydroxy-1-naphthyl)pyrido[4,3-d]pyrimidin-4-yl]piperidine-4-carbonitrile], the IC50 lay in the range of 10 to 100 nM against KRAS G12C; 10 to 100 nM at KRAS G12V; 100 to 10000 nM on KRAS WT; 100 to 10000 nM on KRAS G12D; 10 to 100 nM at KRAS G12A; 100 to 10000 nM against KRAS G12S.
`Oc1cc(-c2ncc3c(N4CCCC(O)CC4)nc(OCC45CCCN4CCC5)nc3c2F)c2ccccc2c1` (stereo not drawn) [Example 70, 1-[8-fluoro-2-(1,2,3,5,6,7-hexahydropyrrolizin-8-ylmethoxy)-7-(3-hydroxy-1-naphthyl)pyrido[4,3-d]pyrimidin-4-yl]azepan-4-ol]: the IC50 on KRAS G12C is 10 to 100 nM; at KRAS G12V, 10 to 100 nM; on KRAS WT, 10 to 100 nM; at KRAS G12D, ≤ 10 nM; on KRAS G12A, 10 to 100 nM; on KRAS G12S it was 100 to 10000 nM.
Take `[O-][S+]1CCCN(c2nc(OCC34CCCN3CCC4)nc3c(F)c(-c4cc(O)cc5ccccc45)ncc23)CC1` (stereo not drawn) [Example 90, 4-[8-fluoro-2-(1,2,3,5,6,7-hexahydropyrrolizin-8-ylmethoxy)-4-(1-oxo-1,4-thiazepan-4-yl)pyrido[4,3-d]pyrimidin-7-yl]naphthalen-2-ol]: the IC50 is 10 to 100 nM against KRAS G12C; 10 to 100 nM against KRAS G12V; 10 to 100 nM against KRAS WT; ≤ 10 nM at KRAS G12D; 10 to 100 nM at KRAS G12A; 100 to 10000 nM against KRAS G12S.

One may read the IC50 as the point on the concentration scale where inhibition reaches its midpoint.
